Measured values as given in patent publication EP3057950B1, “PHENYL LINKED QUINOLINYL MODULATORS OF ROR-GAMMA-T” (Janssen Pharmaceutica NV, priority 2013, dated 2015).
Values joined by “and” are separate entries in the source; they are usually repeats but may differ in a detail not shown here. Identical values can stand only once. Counter-ions that a name gives are not always drawn.

Experiments:
[1] = molecular target: T1, wild type human RORγt ligand binding domain (RORγt LBD) (Homo sapiens, UniProt P51449); assay: RORγt ThermoFluor® Assay (thermal shift, binding affinity); details: pH 7.0, estimated from concentration response curves
T1 construct: His-tag (N); TurboTEV protease cleavage site (ENLYFQG) (N); made in house; host or cells: E. coli (pHIS1, modified pET expression vector)
T1 sequence (P51449 269-508 limits assumed): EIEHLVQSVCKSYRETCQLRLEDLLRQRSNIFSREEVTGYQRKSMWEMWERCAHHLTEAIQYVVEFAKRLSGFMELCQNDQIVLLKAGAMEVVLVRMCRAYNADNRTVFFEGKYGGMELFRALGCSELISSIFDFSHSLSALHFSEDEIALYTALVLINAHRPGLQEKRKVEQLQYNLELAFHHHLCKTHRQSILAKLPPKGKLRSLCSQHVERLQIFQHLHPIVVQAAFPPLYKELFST
Description: This approach is applicable to a wide variety of systems, and rigorous in theoretical interpretation through quantitation of equilibrium binding constants (KD).
The shift in the melting point described as a ΔTm is proportional to the concentration and affinity of the ligand.
Protein and compound solutions are dispensed into black 384-well polypropylene PCR microplates (Abgene) and overlayed with silicone oil (1 µL, Fluka, type DC 200) to prevent evaporation.
Bar-coded assay plates are robotically loaded onto a thermostatically controlled PCR-type thermal block and then heated at a typical ramp-rate of 1 °C/min for all experiments. Fluorescence was measured by continuous illumination with UV light (Hamamatsu LC6) supplied via fiber optic and filtered through a band-pass filter (380-400 nm; >6 OD cutoff). Fluorescence emission of the entire 384-well plate was detected by measuring light intensity using a CCD camera (Sensys, Roper Scientific) filtered to detect 500 ± 25 nm, resulting in simultaneous and independent readings of all 384 wells. Images were collected at each temperature, and the sum of the pixel intensity in a given area of the assay plate was recorded versus temperature. Reference wells contained RORγt without compounds, and the assay conditions were as follows: • 0.065 mg/mL RORγt • 60 µM 1,8-ANS • 100 mM Hepes, pH 7.0 • 10 mM NaCl • 2.5 mM GSH • 0.002% Tween-20
Project compounds were arranged in a pre-dosed mother plate (Greiner Bio-one) wherein compounds are serially diluted in 100% DMSO by 1:2 from a high concentration of 10 mM over 12 columns within a series (column 12 is a reference well containing DMSO, no compound). The compounds were robotically dispensed directly into assay plates (1x = 46 nL) using a Hummingbird capillary liquid handling instrument (Digilab). Following compound dispense, protein and dye in buffer was added to achieve the final assay volume of 3 µL, followed by 1 µL of silicone oil.

[2] = molecular target: T2, wild type human RORγt LBD (Homo sapiens, UniProt P51449); assay: RORγt Reporter Assay (GAL4-RORγt LBD luciferase in HEK293T cells); assay type: cell-based; details: HEK293T cells; for IC50: compounds for 24 hours, read-out: RORγt reporter Assay, IC50; for inhibition at 6 µM: HEK-293T, read-out: RORγt reporter Assay, % inhibition @ 6 µM, @ 6 µM
T2 construct: expressed in transfected cells; host or cells: HEK293T
T2 sequence (P51449 269-508 limits assumed): T1 sequence (P51449 269-508 limits assumed)
Text: A reporter assay was used to test functional activity of RORγt modulatory compounds on transcriptional activation driven by the RORγt LBD. Cells used in the assay were co-transfected with two constructs. The first construct, pBIND-RORγt LBD, contained the wild type human RORγt LBD fused to the DNA binding domain of the GAL4 protein. The second construct, pGL4.31 (Promega Cat no. C935A), contained multiple GAL4 responsive DNA elements upstream of firefly luciferase. […] The mutant construct was called pBIND-RORγt-AF2.
The pBIND vector contains the GAL4 DNA Binding Domain (GAL4 DBD) and the renilla luciferase gene under control of the SV40 promoter. Renilla luciferase expression serves as a control for transfection efficiency and cell viability.
The reporter assay was performed by transiently transfecting HEK293T cells with 5 µg of pBIND-RORγt LBD or pBIND-RORγt LBD-AF2 and 5 µg pGL4.31 (Promega Cat no. C935A) using Fugene 6 (Invitrogen Cat no. E2691) at a 1:6 ratio of DNA: Fugene 6 in a T-75 flask in which cells were at least 80% confluent. Twenty four hours after bulk transfection, cells were plated into 96-well plates at 50,000 cells/well in phenol-red free DMEM containing 5% Lipid Reduced FCS and Pen/Strep. Six hours after plating, cells were treated with compounds for 24 hours. Media was removed and cells were lysed with 50 µL 1x Glo Lysis Buffer (Promega). Dual Glo Luciferase Reagent (50 µL/well) was then added and firefly luciferase luminescence was read on an Envision after a ten minute incubation. Finally, Stop and Glo reagent (50 µL/well) was added and renilla luciferase luminescence was read on an Envision instrument after a ten minute incubation. To calculate the effect of compounds on RORγt activity, the ratio of firefly to renilla luciferase was determined and plotted against compound concentration. Agonist compounds increase RORγt-driven luciferase expression, and antagonist or inverse agonist compounds decrease luciferase expression.

Row | SMILES | Kd [1] | IC50 [2] | inhibition at 6 µM [2]
1 | Cn1cncc1C(O)(c1ccc(Cl)cc1)c1ccc2nc(Cl)c(-c3ccccn3)c(Cl)c2c1 (stereo not drawn) [Example 5, (4-Chlorophenyl)(2,4-dichloro-3-(pyridin-2-yl)quinolin-6-yl)(1-methyl-1H-imidazol-5-yl)methanol•TFA] | 620 nM | 1700 nM | 87%
2 | Cn1cncc1C(O)(c1ccc(Cl)cc1)c1ccc2nc(Cl)c(-c3cccnc3)c(Cl)c2c1 (stereo not drawn) [Example 6, (4-Chlorophenyl)(2,4-dichloro-3-(pyridin-3-yl)quinolin-6-yl)(0-methyl-1H-imidazol-5-yl)methanol•TFA] | 940 nM | 1900 nM | 92%
3 | COc1nc2ccc(C(O)(c3ccc(C(F)(F)F)nc3)c3cncn3C)cc2c(Cl)c1-c1cnn(C)c1 (stereo not drawn) [Example 8, [4-Chloro-2-methoxy-3-(1-methyl-1H-pyrazol-4-yl)quinolin-6-yl](1-methyl-1H-imidazol-5-yl)[6-(trifluoromethyl)pyridin-3-yl]methanol•TFA] | 270 nM | 890 nM | 87%
4 | COc1nc2ccc(C(O)(c3ccc(C(F)(F)F)nc3)c3cncn3C)cc2c(Cl)c1-c1cccc(S(C)(=O)=O)c1 (stereo not drawn) [Example 11, {4-Chloro-2-methoxy-3-[3-(methylsuffonyl)phenyl]quinolin-6-yl)(1-methyl-1H-imidazol-5-yl)[6-(trifluoromethyl)pyridin-3-yl]methanol•TFA] | 640 nM | > 6000 nM | 32%
5 | COc1nc2ccc(C(O)(c3ccc(C(F)(F)F)nc3)c3cncn3C)cc2c(Cl)c1-c1cccc(NS(C)(=O)=O)c1 (stereo not drawn) [Example 12] | 650 nM | ~2000 nM | 90%
6 | COc1nc2ccc(C(O)(c3ccc(C(F)(F)F)nc3)c3cncn3C)cc2c(Cl)c1-c1cncc(S(C)(=O)=O)c1 (stereo not drawn) [Example 13, {4-Chloro-2-methoxy-3-[5-(methylsuflonyl)pyridin-3-yl]quinolin-6-yl)(1-methyl-1H-imidazol-5-yl)[6-(trifluoromethyl)pyridin-3-yl]methanol•TFA] | 2000 nM | > 6000 nM | -52%
7 | COc1nc2ccc(C(O)(c3ccc(C(F)(F)F)nc3)c3cncn3C)cc2c(Cl)c1-c1ccc(Cl)s1 (stereo not drawn) [Example 14a, [4-Chloro-3-(5-chlorothiophen-2-yl)-2-methoxyquinofin-6-yl](1-methyl-1H-imidazol-5-yl)[6-(trifluoromethyl)pyridin-3-yl]methanol•TFA] | 6.7 nM | 1100 nM | 55%
8 | COc1ncc(-c2c(OC)nc3ccc(C(O)(c4ccc(C(F)(F)F)nc4)c4cncn4C)cc3c2Cl)cn1 (stereo not drawn) [Example 15, [4-Chloro-2-methoxy-3-(2-methoxypyrimidin-5-yl)quinolin-6-yl](1-methyl-1H-imidazol-5-yl)[6-(trifluoromethyl)pyridin-3-yl]methanol•TFA] | 21 nM | > 6000 nM | -29%
9 | COc1nc2ccc(C(O)(c3ccc(C(F)(F)F)nc3)c3cncn3C)cc2c(Cl)c1-c1ccc(NS(C)(=O)=O)cc1 (stereo not drawn) [Example 17, N-[4-(4-Chloro-6-{hydroxy(1-methyl-1H-imidazol-5-yl)[6-(trifluoromethyl)pyridin-3-yl]methyl}-2-methoxyquinolin-3-yl)phenyl]methamesulfonamide•TFA] | 26 nM | 530 nM | 87%
10 | Cn1cncc1C(O)(c1ccc(C#N)cc1)c1ccc2nc(C(F)(F)F)c(-c3ccccc3)c(C#N)c2c1 (stereo not drawn) [Example 28, 6-((4-Cyanophenyl)(hydroxy)(1-methyl-1H-imidazol-5-yl)methyl)-3-phenyl-2-(trifluoromethyl)quinoline-4-carbonitrile•TFA] | 46 nM | 24 nM and ~40 nM | 96%
11 | COc1nc2ccc(C(O)(c3sc(C)nc3C)c3cnnn3C)cc2c(Cl)c1-c1ccccc1 (stereo not drawn) [Example 35, (4-Chloro-2-methoxy-3-phenylquinolin-6-yl)(2,4-dimethylthiazol-5-yl)(1-methyl-1H-1,2,3-triazol-5-yl)methnol•TFA] | 18 nM | 160 nM | 101%
12 | COc1nc2ccc(C(O)(c3sc(C)nc3C)c3cncn3C)cc2c(Cl)c1-c1ccccc1 (stereo not drawn) [Example 37, (4-Chloro-2-methoxy-3-phenylquinolin-6-yl)(2,4-dimethylthiazol-5-yl)(1-methyl-1H-imidazol-5-yl)methanol•TFA] | 7.2 nM | 260 nM | 90%

Results, then the compound that gave them:

Row | Kd [1] | IC50 [2] | inhibition at 6 µM [2] | SMILES
13 | 26 nM | 85 nM | 97% | CC(=O)N1CCC(C(O)(c2cccnc2)c2ccc3nc(C(F)(F)F)c(-c4ccccc4)c(Cl)c3c2)CC1 (stereo not drawn) [Example 29, 1-(4-((4-Chloro-3-phenyl-2-(trifluoromethyl)quinolin-6-yl)(hydroxy)(pyridin-3-yl)methyl)piperidin-1-yl)ethanone•TFA]
14 | 160 nM | 650 nM | 98% | COc1c(-c2ccccc2)c(C(F)(F)F)nc2ccc(C(O)(c3ccc(Cl)cc3)c3cncn3C)cc12 (stereo not drawn) [Example 33a, (4-Chlorophenyl)(4-methoxy-3-phenyl-2-(trifluoromethyl)quinolin-6-yl)(1-methyl-1H-imidazol-5-yl)methanol•TFA]
15 | 0.89 nM | 11 nM and ~40 nM | 97% | COc1c(-c2ccccc2)c(Cl)nc2ccc(C(O)(c3sc(C)nc3C)c3cnnn3C)cc12 (stereo not drawn) [Example 36]
16 | 0.26 nM | 30 nM | 93% | COc1c(-c2ccccc2)c(Cl)nc2ccc(C(O)(c3sc(C)nc3C)c3cncn3C)cc12 (stereo not drawn) [Example 38, (2-Chloro-4-methoxy-3-phenylquinolin-6-yl)(2,4-dimethylthiazol-5-yl)(1-methyl-1H-imidazol-5-yl)methanol•TFA]
17 | 5.2 nM | 34 nM | 103% | Cc1ncc(C(O)(c2ccc3nc(Cl)c(-c4ccccc4)c(Cl)c3c2)c2cnnn2C)n1C (stereo not drawn) [Example 39, (2,4-Dichloro-3-phenylquinolin-6-yl)(1,2-dhnethyl-1H-imidazol-5-yl)(1-methyl-1H-1,2,3-triazol-5-yl)methanol]
18 | 1.5 nM | 23 nM | 104% | COc1c(-c2ccccc2)c(Cl)nc2ccc(C(O)(c3cnnn3C)c3cnc(C)n3C)cc12 (stereo not drawn) [Example 40a, (2-Chloro-4-metboxy-3-phenylquinolin-6-yl)(1,2-dimethyl-1H-imidazol-5-yl)(1-methyl-1H-1,2,3-triazol-5-yl)methanol•TFA]
19 | 89 nM | 320 nM | 98% | COc1nc2ccc(C(O)(c3cnnn3C)c3cnc(C)n3C)cc2c(Cl)c1-c1ccccc1 (stereo not drawn) [Example 41a, (4-Chloro-2-methoxy-3-phenylquinolin-6-yl)(1,2-dimethyl-1H-imidazol-5-yl)(1-methyl-1H-1,2,3-triazol-5-yl)methanol•TFA]
